Test results: patent US4050989A, “Process of preparing desacyl-pepsidine with bacillus pumilus” (Eisai Co., Ltd., priority 1974, dated 1977)

Columns and labels:
pepsin = pepsin (Sus scrofa, UniProt P00791); assay: Pepsin-inhibitory activity (method of Murao and Satoi); assay type: biochemical
Experimental: viii. Pepsin-inhibitory activity: Pepsin-inhibitory activity of DA-pepsidine was determined using the method reported by S. Murao and S. Satoi in Agr. Biol. Chem. Japan 34 (8) 1265 - 7 (1970). […] While, that of pepsidine C is 0.86 μg.

Solubility in solvents = assay type: physicochemical

pepsin, sequence (P00791 60-385): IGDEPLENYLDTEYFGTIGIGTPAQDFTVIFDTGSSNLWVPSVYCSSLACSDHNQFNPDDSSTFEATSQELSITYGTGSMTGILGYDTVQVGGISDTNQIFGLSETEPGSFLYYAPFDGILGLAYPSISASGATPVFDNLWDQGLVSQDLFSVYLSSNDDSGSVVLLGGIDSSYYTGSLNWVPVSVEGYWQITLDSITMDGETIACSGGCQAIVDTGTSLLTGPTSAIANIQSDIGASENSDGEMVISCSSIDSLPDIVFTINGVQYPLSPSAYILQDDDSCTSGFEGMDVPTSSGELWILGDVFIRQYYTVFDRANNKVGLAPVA

Structure (SMILES) | amount which gives 50% inhibition against 100 μg of pepsin (pepsin) [µg] | Solubility (Solubility in solvents; in acetic acid and methanol) | Solubility (Solubility in solvents; in acetone and ethylether) | Solubility (Solubility in solvents; in ethanol, n-butanol and pyridine)
CC(C)CC(NC(=O)[C@H](C)NC(=O)CC(O)C(CC(C)C)NC(=O)[C@@H](NC(=O)[C@@H](N)C(C)C)C(C)C)C(O)CC(=O)O (some centres unmarked) [DA-pepsidine, valyl-valyl-4-amino-3-hydroxy-6-methyl-heptanoyl alanyl-4-amino-3-hydroxy-6-methyl-heptanoic acid] | 0.82 | Easily soluble | slightly soluble | soluble
CC(=O)N[C@H](C(=O)N[C@H](C(=O)NC(CC(C)C)C(O)CC(=O)N[C@@H](C)C(=O)NC(CC(C)C)C(O)CC(=O)O)C(C)C)C(C)C (some centres unmarked) [pepsidine C, reference compound] | 0.86 | – | – | –
